test system: MRSA; test: Activity against a strain of MRSA pathogen, relative to thienamycin; assay type: cell-based, methicillin resistant Staphylococcus aureus; conditions: relative to the effectiveness of thienamycin, arbitrarily assigned an effectiveness of 1; one strain of MRSA
Experimental: The activity of the following compounds was measured against a strain of MRSA pathogen and reported as relative to the effectiveness of thienamycin, which is arbitrarily assigned an effectiveness of 1. Regarding this measure of activity, reference is made to R. Guthikonda, et al., J. Med. Chem., 30, 871 (1987). [drawing 18]

Row | SMILES | ANTI-INFECTIVE ACTIVITY MRSA
1 | C[C@@H](O)[C@H]1C(=O)N2C(C(=O)O)=C(c3cccc(Br)c3)C[C@H]12 [R^a1 = Br, R^a2 = H, sodium (5R,6S)-2-[3-bromophenyl]-6[(1R)-1-hydroxyethyl]-carbapen-2-em-3-carboxylate] | 14
2 | C[C@@H](O)[C@H]1C(=O)N2C(C(=O)O)=C(c3cccc(Cl)c3)C[C@H]12 [R^a1 = Cl, R^a2 = H] | 8.1
3 | C[C@@H](O)[C@H]1C(=O)N2C(C(=O)O)=C(c3ccc(Br)cc3)C[C@H]12 [R^a1 = H, R^a2 = Br] | 1.6
4 | C[C@@H](O)[C@H]1C(=O)N2C(C(=O)O)=C(c3ccc(I)cc3)C[C@H]12 [R^a1 = H, R^a2 = I] | 1.8
5 | C[C@@H](O)[C@H]1C(=O)N2C(C(=O)O)=C(c3cccc(F)c3)C[C@H]12 [R^a1 = F, R^a2 = H] | 2
6 | C[C@@H](O)[C@H]1C(=O)N2C(C(=O)O)=C(c3ccc(F)cc3)C[C@H]12 [R^a1 = H, R^a2 = F] | 1.1
7 | C[C@@H](O)[C@H]1C(=O)N2C(C(=O)O)=C(c3ccc(Cl)cc3)C[C@H]12 [R^a1 = H, R^a2 = Cl] | 1.3

— patent EP0538001A1, “MRSA active 2-halophenyl carbapenems” (MERCK & CO. INC., priority 1991, dated 1993)
